Among the data in patent publication US20100305120A1, “COMPOUNDS FOR TREATING MUSCULAR DYSTROPHY” (BIOMARIN IGA LIMITED, priority 2008, published 2010) are activity values, retold here.

The test system of one test is Utrophin A promoter linked to a luciferase reporter gene. Put plainly: Luciferase reporter assay (murine H2K cells), H2K/mdx/Utro A reporter cell line. It counts as cell-based. The note with it: 48 h; test compound concentration 0.3 μM; mdx mouse H2K Utrophin A reporter cells; read-out: Activity (luciferase level relative to control). In outline:
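Immortalized mdx mouse H2K myoblasts stably carrying ~5 kb utrophin A promoter–luciferase construct, kept at 33 °C, 10% CO2. Compound added 24 h after plating, typically at 10 μM final, for 48 h; luciferase measured by cell lysis and luminescence.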
In general terms: Reporter assays use an easily measured gene product as a stand-in for the process of interest.
For the compound `CS(=O)(=O)c1ccc(Cn2nc(NC(=O)Nc3ccc(Cl)cc3)c3ccccc32)cc1` [Compound 118, 1-(4-chlorophenyl)-3-(1-(4-(methylsulfonyl)benzyl)-1H-indazol-3-yl)urea], the activity at 0.3 µM is less than 200%.

Still in this test, the particulars now being: 48 h; test compound concentration 3 μM; mdx mouse H2K Utrophin A reporter cells; read-out: Activity (luciferase level relative to control).
`O=C(Nc1ccc2c(c1)OCO2)c1nn(CCc2ccc(C(=O)N3CCOCC3)cc2)c2ccccc12` [Compound 92, N-(benzo[d][1,3]dioxol-5-yl)-1-(4-(morpholine-4-carbonyl)phenethyl)-1H-indazole-3-carboxamide]: the activity at 3 µM was less than 200%.

Staying with this test, now noted: 48 h; test compound concentration 10 μM; mdx mouse H2K Utrophin A reporter cells; read-out: Activity (luciferase level relative to control).
In the case of `CS(=O)(=O)c1ccc(Cn2nc(C(=O)Nc3ccc4c(c3)OCCO4)c3ccccc32)cc1` [Compound 105, N-(2,3-dihydrobenzo[b][1,4]dioxin-6-yl)-1-(4-(methylsulfonyl)benzyl)-1H-indazole-3-carboxamide], the activity at 10 µM is more than 401%.
Same read-out and setting: with `O=C(Nc1ccc2c(c1)OCO2)c1nn(Cc2ccc(S(=O)(=O)N3CCOCC3)cc2)c2ccccc12` [Compound 137, N-(benzo[d][1,3]dioxol-5-yl)-1-(4-(morpholinosulfonyl)benzyl)-1H-indazole-3-carboxamide] the figure was 201 to 300%; with `CS(=O)(=O)c1ccccc1Cn1nc(C(=O)Nc2ccc3c(c2)OCO3)c2ccccc21` [Compound 136, N-(benzo[d][1,3]dioxol-5-yl)-1-(2-(methylsulfonyl)benzyl)-1H-indazole-3-carboxamide], less than 200%.
Turning to `COc1cccc(OC)c1NC(=O)Nc1nn(Cc2ccc(C(F)(F)F)cc2)c2ccccc12` [Compound 12, 1-(2,6-dimethoxyphenyl)-3-(1-(4-(trifluoromethyl)benzyl)-1H-indazol-3-yl)urea], the activity at 10 µM is less than 200%.
Same read-out and setting: next, `C#CCN(C)S(=O)(=O)c1ccc(Cn2nc(C(=O)Nc3ccc4c(c3)OCO4)c3ccccc32)cc1` [Compound 21, N-(benzo[d][1,3]dioxol-5-yl)-1-(4-(N-methyl-N-(prop-2-ynyl)sulfamoyl)benzyl)-1H-indazole-3-carboxamide]: more than 401%; `COc1cccc(NC(=O)c2nn(Cc3ccc(S(C)(=O)=O)cc3)c3ccccc23)c1` [Compound 86, N-(3-methoxyphenyl)-1-(4-(methylsulfonyl)benzyl)-1H-indazole-3-carboxamide]: less than 200%; `COc1ccc2c(c1)c(C(=O)Nc1ccc(N3CCCCC3)cc1)nn2Cc1ccc(S(=O)(=O)N(C)OC)cc1` [Compound 8, 5-methoxy-1-(4-(N-methoxy-N-methylsulfamoyl)benzyl)-N-(4-(piperidin-1-yl)phenyl)-1H-indazole-3-carboxamide]: less than 200%.
On to `CC(C)c1ccc(NC(=O)c2nn(CCOc3ccccc3)c3ccccc23)cc1` [Compound 26, N-(4-isopropylphenyl)-1-(2-phenoxyethyl)-1H-indazole-3-carboxamide], for which the activity at 10 µM was less than 200%.
For `O=C(Nc1ccccn1)c1nn(CCOc2ccc(F)cc2)c2ccccc12` [Compound 67, 1-(2-(4-fluorophenoxy)ethyl)-N-(pyridin-2-yl)-1H-indazole-3-carboxamide], the activity at 10 µM was less than 200%.
Regarding `O=C(Nc1nccs1)c1nn(CCOc2ccccc2)c2ccccc12` [Compound 71, 1-(2-phenoxyethyl)-N-(thiazol-2-yl)-1H-indazole-3-carboxamide], the activity at 10 µM was less than 200%.
Consider `Cc1cnc(NC(=O)c2nn(Cc3ccc(S(C)(=O)=O)cc3)c3ccccc23)s1` [Compound 125, 1-(4-(methylsulfonyl)benzyl)-N-(5-methylthiazol-2-yl)-1H-indazole-3-carboxamide], for which the activity at 10 µM was less than 200%.
As to `COc1ccc(NC(=O)c2nn(Cc3ccc(C(C)(C)C)cc3)c3ccccc23)cc1` [Compound 65, 1-(4-tert-butylbenzyl)-N-(4-methoxyphenyl)-1H-indazole-3-carboxamide], the activity at 10 µM was in the range of 201 to 300%.
On the same count and under the same terms, next, `COc1ccc(NC(=O)c2nn(CCCOc3ccccc3)c3ccccc23)cc1` [Compound 5, N-(4-methoxyphenyl)-1-(3-phenoxypropyl)-1H-indazole-3-carboxamide]: less than 200%; `CON(C)S(=O)(=O)c1ccc(Cn2nc(C(=O)Nc3ccccn3)c3ccccc32)cc1` [Compound 49, 1-(4-(N-methoxy-N-methylsulfamoyl)benzyl)-N-(pyridin-2-yl)-1H-indazole-3-carboxamide]: less than 200%; `CCc1nnc(Cn2nc(C(=O)Nc3ccc4c(c3)OCO4)c3ccccc32)o1` [Compound 155]: less than 200%.
On the same count and under the same terms, with `CC(C)S(=O)(=O)c1ccc(Cn2nc(C(=O)Nc3ccc4c(c3)OCO4)c3ccccc32)cc1` [Compound 152, N-(benzo[d][1,3]dioxol-5-yl)-1-(4-(isopropylsulfonyl)benzyl)-1H-indazole-3-carboxamide] the figure was less than 200%; with `COc1cccc(OCc2ccc(Cn3nc(NC(=O)Nc4ccc5c(c4)CCC5)c4ccccc43)cc2)c1` [Compound 30, 1-(2,3-dihydro-1H-inden-5-yl)-3-(1-(4-((3-methoxyphenoxy)methyl)benzyl)-1H-indazol-3-yl)urea], less than 200%; with `CS(=O)(=O)c1ccc(Cn2nc(C(=O)Nc3ccc4c(c3)OCO4)c3ccccc32)cc1` [Compound 4, N-(benzo[d][1,3]dioxol-5-yl)-1-(4-(methylsulfonyl)benzyl)-1H-indazole-3-carboxamide], 301 to 400%.
In the case of `CS(=O)(=O)c1ccc(C(=O)n2nc(C(=O)Nc3ccc4c(c3)OCO4)c3ccccc32)cc1` [Compound 140, N-(benzo[d][1,3]dioxol-5-yl)-1-(4-(methylsulfonyl)benzoyl)-1H-indazole-3-carboxamide], the activity at 10 µM was 301 to 400%.
On to `CC(C)c1ccc(NC(=O)c2nn(Cc3ccc(C(=O)N(C)Cc4ccccc4)cc3)c3ccccc23)cc1` [Compound 22, 1-(4-(benzyl(methyl)carbamoyl)benzyl)-N-(4-isopropylphenyl)-1H-indazole-3-carboxamide], for which the activity at 10 µM is less than 200%.
As to `CC(C)(C)c1ccc(Cn2nc(C(=O)Nc3ccc(N4CCCCC4)cc3)c3ccccc32)cc1` [Compound 79, 1-(4-tert-butylbenzyl)-N-(4-(piperidin-1-yl)phenyl)-1H-indazole-3-carboxamide], the activity at 10 µM is less than 200%.
Turning to `CS(=O)(=O)c1ccc(Cn2nc(C(=O)Nc3ccc4occc4c3)c3ccccc32)cc1` [Compound 120, N-(benzofuran-5-yl)-1-(4-(methylsulfonyl)benzyl)-1H-indazole-3-carboxamide], the activity at 10 µM lay within 301 to 400%.
On the same count and under the same terms, next, `COc1ccc(CCNC(=O)Nc2nn(Cc3ccc(COc4cccc(OC)c4)cc3)c3ccccc23)cc1` [Compound 80, 1-(4-methoxyphenethyl)-3-(1-(4-((3-methoxyphenoxy)methyl)benzyl)-1H-indazol-3-yl)urea]: less than 200%.
Still for that read-out and setting: next, `CS(=O)(=O)c1ccc(Cn2nc(C(=O)Nc3ccc(Cl)c(Cl)c3)c3ccccc32)cc1` [Compound 111, N-(3,4-dichlorophenyl)-1-(4-(methylsulfonyl)benzyl)-1H-indazole-3-carboxamide]: less than 200%; `Cc1ccc(NC(=O)Nc2nn(Cc3ccc(C(F)(F)F)cc3)c3ccccc23)cc1` [Compound 59, 1-p-tolyl-3-(1-(4-(trifluoromethyl)benzyl)-1H-indazol-3-yl)urea]: less than 200%; `CCN(CC)S(=O)(=O)c1ccc(Cn2nc(C(=O)Nc3ccccn3)c3ccccc32)cc1` [Compound 39, 1-(4-(N,N-diethylsulfamoyl)benzyl)-N-(pyridin-2-yl)-1H-indazole-3-carboxamide]: less than 200%.
The same measure, in the same setting: next, `CS(=O)(=O)c1ccc(Cn2nc(C(=O)Nc3nccs3)c3ccccc32)cc1` [Compound 3, 1-(4-(methylsulfonyl)benzyl)-N-(thiazol-2-yl)-1H-indazole-3-carboxamide]: less than 200%; `O=C(Nc1nn(Cc2ccc(CN3C(=O)CCC3=O)cc2)c2ccccc12)c1cnc2ccccc2n1` [Compound 33, N-(1-(4-((2,5-dioxopyrrolidin-1-yl)methyl)benzyl)-1H-indazol-3-yl)quinoxaline-2-carboxamide]: less than 200%.
In the case of `CS(=O)(=O)c1ccc(Cn2nc(C(=O)Nc3ccc4ncccc4c3)c3ccccc32)cc1` [Compound 99, 1-(4-(methylsulfonyl)benzyl)-N-(quinolin-6-yl)-1H-indazole-3-carboxamide], the activity at 10 µM lay in the range of 201 to 300%.
Take `O=C(Nc1ccc2c(c1)CCC2)Nc1nn(Cc2ccc(C(F)(F)F)cc2)c2ccccc12` [Compound 53, 1-(2,3-dihydro-1H-inden-5-yl)-3-(1-(4-(trifluoromethyl)benzyl)-1H-indazol-3-yl)urea]: the activity at 10 µM was less than 200%.
On to `CC(C)c1ccccc1NC(=O)c1nn(Cc2ccc(S(C)(=O)=O)cc2)c2ccccc12` [Compound 85, N-(2-isopropylphenyl)-1-(4-(methylsulfonyl)benzyl)-1H-indazole-3-carboxamide], for which the activity at 10 µM was less than 200%.
Regarding `O=C(Nc1ccccc1C(F)(F)F)Nc1nn(Cc2ccc(COc3ccc4c(c3)OCO4)cc2)c2ccc(C(F)(F)F)cc12` [Compound 29, 1-(1-(4-((benzo[d][1,3]dioxol-5-yloxy)methyl)benzyl)-5-(trifluoromethyl)-1H-indazol-3-yl)-3-(2-(trifluoromethyl)phenyl)urea], the activity at 10 µM was less than 200%.
As for `Cc1ccc(Cn2nc(C(=O)Nc3ccc4c(c3)OCO4)c3ccccc32)cc1` [Compound 131, N-(benzo[d][1,3]dioxol-5-yl)-1-(4-methylbenzyl)-1H-indazole-3-carboxamide], the activity at 10 µM was less than 200%.

The test is the same for the next values; noted with them: 48 h; test compound concentration 30 μM; mdx mouse H2K Utrophin A reporter cells; read-out: Activity (luciferase level relative to control).
For the compound `O=C(Nc1ccccc1OC(F)(F)F)Nc1nn(Cc2ccc(C(F)(F)F)cc2)c2ccccc12` [Compound 40, 1-(2-(trifluoromethoxy)phenyl)-3-(1-(4-(trifluoromethyl)benzyl)-1H-indazol-3-yl)urea], the activity at 30 µM was less than 200%.
